In patent publication US20260256925A1, “INDAZOLE DERIVATIVES AS ESTROGEN RECEPTOR DEGRADERS” (REGENTS OF THE UNIVERSITY OF MICHIGAN, priority 2022, published 2026):

Experiments:
[1] = Cell growth assay, WST-8 (compounds B1-B126); assay type: cell-based; conditions: 96 h; T47D cell line, WST-8, 4 days; read-out: Cell growth inhibition in T47D cell line IC50
Description: Cell Growth Assay. The cells are seeded at certain concentration (e.g., at 1500/well) in multi-well plates overnight. Cells are subsequently treated with the compounds. A certain period of time (e.g., 4 days) after the compound treatment, 10% WST-8 reagent is added to the culture medium and incubate under certain condiction (e.g., in a CO2 incubator at 37° C. for 2.5 hours). The absorbance is measured on each sample using a microplate reader at certain wavelength (e.g., 450 nm). The relative absorbance is calculated against the vehicle control from three individually repeats.
Cell Growth Assay. The cells were seeded at 1500/well in 96 well plates overnight. One day after the seeding, they were treated with indicated doses of compounds respectively. 4 days after the compound treatment, 10% WST-8 reagent was added to the culture medium and incubate in a CO2 incubator at 37° C. for 2.5 hours. Before reading, the plate was mixed gently on an orbital shaker for one minute to ensure homogeneous distribution of color. The absorbance was measured of each sample using a microplate reader at a wavelength of 450 nm. The relative absorbance was calculated against the vehicle control from three individually repeats.

ER = biological target: T1, ER (Homo sapiens, UniProt P03372); test: In-cell western blot analysis, relative ER percentage (compounds B1-B126); assay type: cell-based; conditions: ER degradation, 16 hours, read-out: ICW DC50
T1 construct: endogenous in cells; probably T47D or MCF-7
T1 sequence (P03372 1-595): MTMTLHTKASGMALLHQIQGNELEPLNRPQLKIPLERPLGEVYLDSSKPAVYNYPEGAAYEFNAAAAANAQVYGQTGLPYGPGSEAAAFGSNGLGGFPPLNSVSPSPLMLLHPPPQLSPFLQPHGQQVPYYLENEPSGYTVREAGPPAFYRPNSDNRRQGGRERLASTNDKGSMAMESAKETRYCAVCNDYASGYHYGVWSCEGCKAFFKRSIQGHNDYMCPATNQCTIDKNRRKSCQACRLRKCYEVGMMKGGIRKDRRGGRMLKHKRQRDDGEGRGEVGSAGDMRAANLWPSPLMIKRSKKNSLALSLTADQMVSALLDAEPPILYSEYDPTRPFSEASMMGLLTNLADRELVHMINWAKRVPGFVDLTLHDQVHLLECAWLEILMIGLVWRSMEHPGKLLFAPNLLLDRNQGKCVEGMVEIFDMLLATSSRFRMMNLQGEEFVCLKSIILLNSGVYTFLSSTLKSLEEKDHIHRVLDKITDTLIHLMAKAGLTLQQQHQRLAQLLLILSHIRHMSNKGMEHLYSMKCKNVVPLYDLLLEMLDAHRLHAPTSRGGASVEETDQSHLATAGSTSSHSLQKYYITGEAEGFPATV
Description: In-cell western blot analysis. Cells are seeded in multi-well plates (e.g., at 40,000 or 10,000 cells/well). Diluted compounds at certain concentration are added (final 0.5% DMSO) and cells are incubated for a certain period of time (e.g., 16 hours). Formaldehyde (e.g., PBS: FA=9:1) is added and followed by washing with PBS. The cells are blocked with Licor blocking buffer (Li-Cor). The relative ER percentage in treated cells are obtained by comparing the values of treated wells to those in untreated and DMSO-treated wells as 100%.
In-cell western blot analysis. a. seed cells in black-sided/clear bottom 96- or 384-well plates at 40,000 or 10,000 cells/well, overnight; b. add diluted compounds (final 0.5% DMSO), 16 hours. […] RT 2h, gentle shaking. Negative control: cells plus secondary antibodies (no primary antibodies); e. wash×4 with PBS +0.05-0.1% Tween 20, gentel shaking; f. anti-rabbit-680 and anti-mouse-800 (both 1:1000 in LiCor block+0.05% Tween20, RT 1h, gentle shaking, no light. LI-COR: 0.2% to reduce background; g. wash×4 with PBS+0.05% Tween 20, gental shaking; h. add 100 μL or 25 μL of PBS to each well and read on CLX plate reader. The relative ER percentage in treated cells were obtained by comparing the values of treated wells to those in untreated and DMSO-treated wells as 100%.

Compound | DC50 (ER) | IC50 [1]
C[C@@H]1Cc2c(ccc3[nH]ncc23)[C@@H](c2ccc(N3CCC4(CCN(C(=O)CN5Cc6cc7c(cc6C5)C(=O)N(C5CCC(=O)NC5=O)C7)CC4)CC3)cn2)N1CC(F)(F)F (stereo partly drawn) [Compound B74, 3-(6-(2-(9-(6-((6S,8R)-8-methyl-7-(2,2,2-trifluoroethyl)-6,7,8,9-tetrahydro-3H-pyrazolo[4,3-f]isoquinolin-6-yl)pyridin-3-yl)-3,9-diazaspiro[5.5]undecan-3-yl)-2-oxoethyl)-1-oxo-3,5,6,7-tetrahydropyrrolo[3,4-f]isoindol-2(1H)-yl)piperidine-2,6-dione] | – | 1 to 10 nM
COc1c2c(cc3c1CN(C1CCC(=O)NC1=O)C3=O)CN(CC(=O)N1CCC3(CC1)CCN(c1ccc([C@@H]4c5ccc6[nH]ncc6c5C[C@@H](C)N4CC(F)(F)F)nc1)CC3)C2 (stereo partly drawn) [Compound B75, 3-(4-methoxy-6-(2-(9-(6-((6S,8R)-8-methyl-7-(2,2,2-trifluoroethyl)-6,7,8,9-tetrahydro-3H-pyrazolo[4,3-f]isoquinolin-6-yl)pyridin-3-yl)-3,9-diazaspiro[5.5]undecan-3-yl)-2-oxoethyl)-1-oxo-3,5,6,7-tetrahydropyrrolo[3,4-f]isoindol-2(1H)-yl)piperidine-2,6-dione] | – | < 1 nM
C[C@@H]1Cc2c(ccc3[nH]ncc23)[C@@H](c2ccc(N3CCC4(CCN(CC(=O)N5Cc6cc7c(cc6C5)C(=O)N(C5CCC(=O)NC5=O)C7=O)CC4)CC3)cn2)N1CC(F)F (stereo partly drawn) [Compound B50, 6-(2-(9-(6-((6S,8R)-7-(2,2-difluoroethyl)-8-methyl-6,7,8,9-tetrahydro-3H-pyrazolo[4,3-f]isoquinolin-6-yl)pyridin-3-yl)-3,9-diazaspiro[5.5]undecan-3-yl)acetyl)-2-(2,6-dioxopiperidin-3-yl)-6,7-dihydropyrrolo[3,4-f]isoindole-1,3(2H,5H)-dione] | > 100 nM | –
C[C@@H]1Cc2c(ccc3[nH]ncc23)[C@@H](c2c(F)cc(N3CCC4(CCN(C(=O)CN5Cc6cc7c(cc6C5)C(=O)N(C5CCC(=O)NC5=O)C7=O)CC4)CC3)cc2F)N1CC(F)F (stereo partly drawn) [Compound B15, 6-(2-(9-(4-((6S,8R)-7-(2,2-difluoroethyl)-8-methyl-6,7,8,9-tetrahydro-3H-pyrazolo[4,3-f]isoquinolin-6-yl)-3,5-difluorophenyl)-3,9-diazaspiro[5.5]undecan-3-yl)-2-oxoethyl)-2-(2,6-dioxopiperidin-3-yl)-6,7-dihydropyrrolo[3,4-f]isoindole-1,3(2H,5H)-dione] | – | < 1 nM
C[C@@H]1Cc2c(ccc3[nH]ncc23)[C@@H](c2c(F)cc(C3=CCC(C(=O)N4CCC(N5Cc6cc7c(cc6C5)C(=O)N(C5CCC(=O)NC5=O)C7=O)CC4)CC3)cc2F)N1CC(F)F (stereo partly shown) [Compound B102] | > 100 nM | –
3-((R)-7-((7-(6-((6S,8R)-7-(2,2- difluoroethyl)-8-methyl-6,7,8,9- tetrahydro-3H-pyrazolo[4,3- f]isoquinolin-6-yl)pyridin-3-yl)-7- azaspiro[3.5]nonan-2-yl)mcthyl)-1- oxo-1,3,5,5a,6,7,8,9-octahydro-2H- pyrazino[1′,2′:4,5][1,4]oxazino[2,3- e]isoindol-2-yl)piperidine-2,6- dione [Compound B83] | > 100 nM | –

The next lines start with results.

DC50 (ER) | Compound | IC50 [1]
< 10 nM | C[C@@H]1Cc2c(ccc3[nH]ncc23)[C@@H](c2cnc(N3CCC4(CC3)CC(CN3CCN5c6cc7c(cc6OC[C@@H]5C3)C(=O)N(C3CCC(=O)NC3=O)C7)C4)nc2)N1CC(F)(F)F (stereo partly drawn) [Compound B113, 3-((S)-3-((7-(5-((6S,8R)-8-methyl-7-(2,2,2-trifluoroethyl)-6,7,8,9-tetrahydro-3H-pyrazolo[4,3-f]isoquinolin-6-yl)pyrimidin-2-yl)-7-azaspiro[3.5]nonan-2-yl)mcthyl)-8-oxo-1,2,3,4,4a,5,8,10-octahydro-9H-pyrazino[1′,2′:4,5][1,4]oxazino[2,3-f]isoindol-9-yl)piperidine-2,6-dione] | –
> 100 nM | C[C@H]1Cc2c(ccc3[nH]ncc23)[C@H](c2cnc(N3CCC4(CC3)CC(CN3CCN(c5ccc(NC6CCC(=O)NC6=O)cc5F)CC3)C4)nc2)N1CC(F)(F)F (stereo partly drawn) [Compound B122, 3-((3-fluoro-4-(4-((7-(5-((6R,8S)-8-methyl-7-(2,2,2-trifluoroethyl)-6,7,8,9-tetrahydro-3H-pyrazolo[4,3-f]isoquinolin-6-yl)pyrimidin-2-yl)-7-azaspiro[3.5]nonan-2-yl)methyl)piperazin-1-yl)phenyl)amino)piperidine-2,6-dione] | –
10 to 100 nM | C[C@H]1Cc2c(ccc3[nH]ncc23)[C@H](c2cnc(N3CCC4(CC3)CC(CN3CCN5c6cc7c(cc6OC[C@H]5C3)C(=O)N(C3CCC(=O)NC3=O)C7)C4)nc2)N1CC(F)(F)F (stereo partly drawn) [Compound B118, 3-((R)-3-((7-(5-((6R,8S)-8-methyl-7-(2,2,2-trifluoroethyl)-6,7,8,9-tetrahydro-3H-pyrazolo[4,3-f]isoquinolin-6-yl)pyrimidin-2-yl)-7-azaspiro[3.5]nonan-2-yl)methyl)-8-oxo-1,2,3,4,4a,5,8,10-octahydro-9H-pyrazino[1′,2′:4,5][1,4]oxazino[2,3-f]isoindol-9-yl)piperidine-2,6-dione] | –
< 10 nM | C[C@H]1Cc2c(ccc3[nH]ncc23)[C@H](c2cnc(N3CC4(CCC(CN5CCN6c7ccc8c(c7OC[C@@H]6C5)CN([C@@H]5CCC(=O)NC5=O)C8=O)CC4)C3)nc2)N1CC(F)(F)F [Compound B123, (R)-3-((S)-7-((2-(5-((6R,8S)-8-methyl-7-(2,2,2-trifluoroethyl)-6,7,8,9-tetrahydro-3H-pyrazolo[4,3-f]isoquinolin-6-yl)pyrimidin-2-yl)-2-azaspiro[3.5]nonan-7-yl)methyl)-1-oxo-1,3,5,5a,6,7,8,9-octahydro-2H-pyrazino[1′,2′:4,5][1,4]oxazino[2,3-e]isoindol-2-yl)piperidine-2,6-dione] | –
> 100 nM | C[C@H]1Cc2c(ccc3[nH]ncc23)[C@H](c2ccc(N3CCC4(CC3)CC(CN3CCN(c5ccc(NC6CCC(=O)NC6=O)cc5F)CC3)C4)cn2)N1CC(F)(F)F (stereo partly drawn) [Compound B120, 3-((3-fluoro-4-(4-((7-(6-((6R,8S)-8-methyl-7-(2,2,2-trifluoroethyl)-6,7,8,9-tetrahydro-3H-pyrazolo[4,3-f]isoquinolin-6-yl)pyridin-3-yl)-7-azaspiro[3.5]nonan-2-yl)methyl)piperazin-1-yl)phenyl)amino)piperidine-2,6-dione] | –
> 100 nM | COc1cc(N2CCC3(CC2)CC(CN2CCC4(CC2)COc2c4ccc4c2CN(C2CCC(=O)NC2=O)C4=O)C3)ccc1[C@@H]1c2ccc3[nH]ncc3c2C[C@@H](C)N1CC(F)F (stereo partly drawn) [Compound B56, 3-(1′-((7-(4-((6S,8R)-7-(2,2-difluoroethyl)-8-methyl-6,7,8,9-tetrahydro-3H-pyrazolo[4,3-f]isoquinolin-6-yl)-3-methoxyphenyl)-7-azaspiro[3.5]nonan-2-yl)methyl)-6-oxo-6,8-dihydro-2H,7H-spiro[furo[2,3-e]isoindole-3,4′-piperidin]-7-yl)piperidine-2,6-dione] | –
> 100 nM | C[C@H]1Cc2c(ccc3[nH]ncc23)[C@H](c2ccc(N3CC4(CCC(CN5CCN(c6ccc(NC7CCC(=O)NC7=O)cc6F)CC5)CC4)C3)cn2)N1CC(F)(F)F (stereo partly drawn) [Compound B121, 3-((3-fluoro-4-(4-((2-(6-((6R,8S)-8-methyl-7-(2,2,2-trifluoroethyl)-6,7,8,9-tetrahydro-3H-pyrazolo[4,3-f]isoquinolin-6-yl)pyridin-3-yl)-2-azaspiro[3.5]nonan-7-yl)methyl)piperazin-1-yl)phenyl)amino)piperidine-2,6-dione] | –
